molecular target: T1, full-length ATR (Homo sapiens, UniProt Q13535); assay: ATR Inhibition Assay (radioactive-phosphate incorporation); type: biochemical; settings: Ki(app); 5 nM full-length ATR, 10 μM ATP, 800 μM target peptide, 25° C.
T1 construct: in the presence of 5 nM full-length ATR
In short: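 After a 10-min pre-incubation of compound with 5 nM enzyme at 25 °C, ATP was added to start the reaction (final 10 μM [γ-33P]ATP, 800 μM peptide; Tris/HCl pH 7.5, MgCl2, DTT), which ran 24 h. Incorporated 33P was captured on phosphocellulose filters, and Ki(app) was fitted by non-linear regression.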

T1 sequence (Q13535 whole entry): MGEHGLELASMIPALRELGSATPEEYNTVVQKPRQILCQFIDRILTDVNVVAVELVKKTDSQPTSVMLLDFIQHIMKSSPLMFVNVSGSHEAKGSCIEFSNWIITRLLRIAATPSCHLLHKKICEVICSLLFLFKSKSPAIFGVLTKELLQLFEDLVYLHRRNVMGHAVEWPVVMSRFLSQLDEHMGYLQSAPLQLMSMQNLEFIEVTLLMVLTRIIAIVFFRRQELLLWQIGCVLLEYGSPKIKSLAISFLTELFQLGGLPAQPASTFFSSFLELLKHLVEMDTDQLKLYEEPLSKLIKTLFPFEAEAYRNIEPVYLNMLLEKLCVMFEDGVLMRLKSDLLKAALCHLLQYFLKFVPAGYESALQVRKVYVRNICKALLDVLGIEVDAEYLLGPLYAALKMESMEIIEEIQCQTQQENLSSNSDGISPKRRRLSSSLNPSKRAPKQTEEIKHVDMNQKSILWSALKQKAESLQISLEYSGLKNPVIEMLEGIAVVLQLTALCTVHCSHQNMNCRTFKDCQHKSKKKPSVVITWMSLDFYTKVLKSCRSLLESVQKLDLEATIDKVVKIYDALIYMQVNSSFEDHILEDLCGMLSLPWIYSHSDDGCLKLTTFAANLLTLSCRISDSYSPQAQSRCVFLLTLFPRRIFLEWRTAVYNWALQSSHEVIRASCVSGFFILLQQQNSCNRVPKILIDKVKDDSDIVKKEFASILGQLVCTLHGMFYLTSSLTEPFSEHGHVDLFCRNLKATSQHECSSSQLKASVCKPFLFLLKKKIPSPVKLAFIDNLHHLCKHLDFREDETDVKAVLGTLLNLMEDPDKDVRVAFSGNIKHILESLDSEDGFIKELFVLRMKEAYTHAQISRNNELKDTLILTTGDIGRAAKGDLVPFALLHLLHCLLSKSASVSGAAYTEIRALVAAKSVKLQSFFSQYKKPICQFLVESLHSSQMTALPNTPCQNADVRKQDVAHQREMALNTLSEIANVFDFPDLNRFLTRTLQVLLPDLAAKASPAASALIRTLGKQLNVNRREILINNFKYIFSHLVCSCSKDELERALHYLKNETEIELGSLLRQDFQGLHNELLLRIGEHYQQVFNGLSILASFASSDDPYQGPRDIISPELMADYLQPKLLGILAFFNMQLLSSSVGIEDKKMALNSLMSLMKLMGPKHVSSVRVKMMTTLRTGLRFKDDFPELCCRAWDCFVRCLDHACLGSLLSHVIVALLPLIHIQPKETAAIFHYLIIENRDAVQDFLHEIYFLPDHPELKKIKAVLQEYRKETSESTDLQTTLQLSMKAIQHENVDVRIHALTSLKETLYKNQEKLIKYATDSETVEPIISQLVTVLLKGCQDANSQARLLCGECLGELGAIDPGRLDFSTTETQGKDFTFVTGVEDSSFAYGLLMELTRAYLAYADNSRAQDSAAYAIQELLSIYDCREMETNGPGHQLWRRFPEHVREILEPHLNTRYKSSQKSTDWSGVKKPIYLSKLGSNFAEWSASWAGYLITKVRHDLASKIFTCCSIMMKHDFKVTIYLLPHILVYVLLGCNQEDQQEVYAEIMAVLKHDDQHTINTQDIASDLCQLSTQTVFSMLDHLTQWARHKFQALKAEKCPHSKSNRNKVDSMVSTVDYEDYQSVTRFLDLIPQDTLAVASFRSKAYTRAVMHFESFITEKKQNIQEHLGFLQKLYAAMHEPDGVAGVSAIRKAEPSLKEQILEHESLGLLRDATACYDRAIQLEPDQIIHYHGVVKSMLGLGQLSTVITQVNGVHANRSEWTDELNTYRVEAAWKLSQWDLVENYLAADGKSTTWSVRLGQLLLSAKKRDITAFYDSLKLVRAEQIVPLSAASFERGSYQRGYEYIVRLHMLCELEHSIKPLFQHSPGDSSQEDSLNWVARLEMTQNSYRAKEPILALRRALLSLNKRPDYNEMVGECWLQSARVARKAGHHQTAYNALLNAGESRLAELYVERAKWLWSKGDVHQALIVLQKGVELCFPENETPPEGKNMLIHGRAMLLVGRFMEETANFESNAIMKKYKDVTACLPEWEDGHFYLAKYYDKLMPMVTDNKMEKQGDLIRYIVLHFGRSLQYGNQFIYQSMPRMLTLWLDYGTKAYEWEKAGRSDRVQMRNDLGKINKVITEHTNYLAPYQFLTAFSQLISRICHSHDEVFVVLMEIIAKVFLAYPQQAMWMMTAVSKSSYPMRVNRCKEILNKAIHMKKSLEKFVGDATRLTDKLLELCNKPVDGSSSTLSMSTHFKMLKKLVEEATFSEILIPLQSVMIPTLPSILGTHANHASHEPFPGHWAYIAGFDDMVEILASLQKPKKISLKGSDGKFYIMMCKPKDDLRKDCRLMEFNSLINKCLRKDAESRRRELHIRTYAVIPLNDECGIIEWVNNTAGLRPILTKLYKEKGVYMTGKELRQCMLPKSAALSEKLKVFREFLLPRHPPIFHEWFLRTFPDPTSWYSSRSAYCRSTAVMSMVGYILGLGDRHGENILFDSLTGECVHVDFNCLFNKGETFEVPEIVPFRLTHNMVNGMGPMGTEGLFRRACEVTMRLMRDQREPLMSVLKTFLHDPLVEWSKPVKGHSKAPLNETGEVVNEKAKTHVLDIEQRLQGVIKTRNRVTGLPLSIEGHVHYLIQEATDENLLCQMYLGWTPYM

| Structure (SMILES) | Ki |
| --- | --- |
| Nc1ncc(N2CCN(C(=O)c3ccccc3)CC2)nc1C(=O)Nc1ccccn1 [Compound I-109, 3-amino-6-(4-(phenylcarbonyl)piperazin-1-yl)-N-(pyridin-2-yl)pyrazine-2-carboxamide] | 1 to 10 µM |
| Nc1ncc(C2=CCN(C(=O)N3CCCCC3)CC2)nc1-c1nnc(-c2ccccc2)o1 [Compound I-236, (4-(5-amino-6-(5-phenyl-1,3,4-oxadiazol-2-yl)pyrazin-2-yl)-5,6-dihydropyridin-1(2H)-yl)(piperidin-1-yl)methanone] | < 0.1 µM |
| CNCc1ccc(-c2nnc(-c3nc(N4CCC(N5CCCC5=O)CC4)cnc3N)o2)cc1 [Compound I-364, 1-(1-(5-Amino-6-(5-(4-((methylamino)methyl)phenyl)-1,3,4-oxadiazol-2-yl)pyrazin-2-yl)piperidin-4-yl)pyrrolidin-2-one] | 0.1 to 1 µM |
| CNCc1ccc(-c2nnc(-c3nc(N4C[C@@H]5[C@H](C4)[C@@H]5NS(=O)(=O)C(C)C)cnc3N)o2)cc1 [Compound I-370, N-[(1S,5R)-3-[5-Amino-6-[5-[4-(methylaminomethyl)phenyl]-1,3,4-oxadiazol-2-yl]pyrazin-2-yl]-3-azabicyclo[3.1.0]hexan-6-yl]propane-2-sulfonamide] | 0.1 to 1 µM |
| CN(C)C(=O)N1CCN(c2cnc(N)c(C(=O)Nc3ccccn3)n2)CC1 [Compound I-229, 3-amino-6-(4-(dimethylcarbamoyl)piperazin-1-yl)-N-(pyridin-2-yl)pyrazine-2-carboxamide] | 0.1 to 1 µM |
| N#CCCN1CCN(c2cnc(N)c(-c3nnc(-c4ccccc4)o3)n2)CC1 [Compound I-298, 3-[4-[5-amino-6-(5-phenyl-1,3,4-oxadiazol-2-yl)pyrazin-2-yl]piperazin-1-yl]propanenitrile] | 1 to 10 µM |
| CNC(=O)[C@@H]1CCN(c2cnc(N)c(-c3nc4ccc(C)cc4[nH]3)n2)C1 [Compound I-77, (R)-1-(5-amino-6-(6-methyl-1H-benzo[d]imidazol-2-yl)pyrazin-2-yl)-N-methylpyrrolidine-3-carboxamide] | 1 to 10 µM |
| CCS(=O)(=O)N1CCN(c2cnc(N)c(-c3nnc(-c4ccccc4F)o3)n2)CC1 [Compound I-299, 5-(4-ethylsulfonylpiperazin-1-yl)-3-[5-(2-fluorophenyl)-1,3,4-oxadiazol-2-yl]pyrazin-2-amine] | 0.1 to 1 µM |
| Nc1ncc(N2CC[C@H](NC(=O)c3ccccn3)C2)nc1-c1nc2ccccc2[nH]1 [Compound I-193, (S)-N-(1-(5-amino-6-(1H-benzo[d]imidazol-2-yl)pyrazin-2-yl)pyrrolidin-3-yl)pyridine-2-carboxamide] | 0.1 to 1 µM |
| Cc1ccc2nc(-c3nc(N4CCN(c5ccccc5F)CC4)cnc3N)[nH]c2c1 [Compound I-45, 5-(4-(2-fluorophenyl)piperazin-1-yl)-3-(6-methyl-1H-benzo[d]imidazol-2-yl)pyrazin-2-amine] | 1 to 10 µM |
| CC(=O)N1CCN(c2cnc(N)c(C(=O)Nc3ccccn3)n2)CC1 [Compound I-142, 3-amino-6-(4-ethanoylpiperazin-1-yl)-N-(pyridin-2-yl)pyrazine-2-carboxamide] | 1 to 10 µM |
| CCS(=O)(=O)N1C2CCC1CN(c1cnc(N)c(-c3nnc(-c4ccc(CNC)cc4)o3)n1)C2 [Compound I-341, 5-(8-Ethylsulfonyl-3,8-diazabicyclo[3.2.1]octan-3-yl)-3-[5-[4-(methylaminomethyl)phenyl]-1,3,4-oxadiazol-2-yl]pyrazin-2-amine] | 0.1 to 1 µM |
| CCS(=O)(=O)N1CCN(c2cnc(N)c(-c3nc4ccccc4n3-c3ccccc3)n2)CC1 [Compound I-308, 5-(4-ethylsulfonylpiperazin-1-yl)-3-(1-phenylbenzimidazol-2-yl)pyrazin-2-amine] | 0.1 to 1 µM |
| CC(C)(C)C(=O)N1CCN(c2cnc(N)c(C(=O)Nc3ccccn3)n2)CC1 [Compound I-209, 3-amino-6-(4-(2,2-dimethylpropanoyl)piperazin-1-yl)-N-(pyridin-2-yl)pyrazine-2-carboxamide] | 1 to 10 µM |
| CNCc1ccc(-c2nnc(-c3nc(N4CCC5(CCNC5=O)CC4)cnc3N)o2)cc1 [Compound I-360, 8-(5-Amino-6-(5-(4-((methylamino)methyl)phenyl)-1,3,4-oxadiazol-2-yl)pyrazin-2-yl)-2,8-diazaspiro[4.5]decan-1-one] | 0.1 to 1 µM |
| Nc1ncc(N2CCN(S(=O)(=O)c3ccsc3)CC2)nc1-c1nnc(-c2ccccc2)o1 [Compound I-98, 3-(5-phenyl-1,3,4-oxadiazol-2-yl)-5-(4-(thiophen-3-ylsulfonyl)piperazin-1-yl)pyrazin-2-amine] | 0.1 to 1 µM |
| Nc1ncc(N2CCN(C(=O)OCc3ccccc3)CC2)nc1C(=O)Nc1ccccn1 [Compound I-260, benzyl 4-(5-amino-6-(pyridin-2-ylcarbamoyl)pyrazin-2-yl)piperazine-1-carboxylate] | 1 to 10 µM |

Other lines, results leading:

| Ki | Structure (SMILES) |
| --- | --- |
| < 0.1 µM | CCS(=O)(=O)N1CC=C(c2cnc(N)c(-c3nc4ccccc4[nH]3)n2)CC1 [Compound I-71, 3-(1H-benzo[d]imidazol-2-yl)-5-(1-(ethylsulfonyl)-1,2,3,6-tetrahydropyridin-4-yl)pyrazin-2-amine] |
| < 0.1 µM | Nc1ncc(C2=CCN(C(=O)c3ccccn3)CC2)nc1-c1nc2ccccc2[nH]1 [Compound I-139, (4-(5-amino-6-(1H-benzo[d]imidazol-2-yl)pyrazin-2-yl)-5,6-dihydropyridin-1(2H)-yl)(pyridin-2-yl)methanone] |
| 0.1 to 1 µM | CCS(=O)(=O)N1CCN(c2cnc(N)c(-c3nc4ccccc4s3)n2)CC1 [Compound I-17, 3-(benzo[d]thiazol-2-yl)-5-(4-(ethylsulfonyl)piperazin-1-yl)pyrazin-2-amine] |
| 0.1 to 1 µM | CC(C)(C)OC(=O)N1CC=C(c2cnc(N)c(-c3noc(-c4ccccc4)n3)n2)CC1 [Compound I-163, Tert-butyl 4-(5-amino-6-(5-phenyl-1,2,4-oxadiazol-3-yl)pyrazin-2-yl)-5,6-dihydropyridine-1(2H)-carboxylate] |
| 0.1 to 1 µM | CCS(=O)(=O)N1CC=C(c2cnc(N)c(C(=O)Nc3cnccn3)n2)CC1 [Compound I-170, 3-amino-6-(1-(ethylsulfonyl)-1,2,3,6-tetrahydropyridin-4-yl)-N-(pyrazin-2-yl)pyrazine-2-carboxamide] |
| < 0.1 µM | CCS(=O)(=O)N1CC=C(c2cnc(N)c(C(=O)Nc3n[nH]c4ccccc34)n2)CC1 [Compound I-169, 3-amino-6-(1-(ethylsulfonyl)-1,2,3,6-tetrahydropyridin-4-yl)-N-(1H-indazol-3-yl)pyrazine-2-carboxamide] |
| 0.1 to 1 µM | Nc1ncc(C2=CCN(C(=O)CCC(=O)O)CC2)nc1-c1nc2ccccc2[nH]1 [Compound I-324, 4-(4-(5-Amino-6-(1H-benzo[d]imidazol-2-yl)pyrazin-2-yl)-5,6-dihydropyridin-1(2H)-yl)-4-oxobutanoic acid] |
| 0.1 to 1 µM | CN(C)C1CCN(C(=O)N2CC=C(c3cnc(N)c(-c4nc5ccccc5[nH]4)n3)CC2)CC1 [Compound I-173, (4-(5-amino-6-(1H-benzo[d]imidazol-2-yl)pyrazin-2-yl)-5,6-dihydropyridin-1(2H)-yl)(4-(dimethylamino)piperidin-1-yl)methanone] |
| 0.1 to 1 µM | Nc1ncc(C2=CCN(C(=O)COc3ccccc3)CC2)nc1-c1nc2ccccc2[nH]1 [Compound I-137, 1-(4-(5-amino-6-(1H-benzo[d]imidazol-2-yl)pyrazin-2-yl)-5,6-dihydropyridin-1(2H)-yl)-2-phenoxyethanone] |

— patent publication US8410112B2, “Compounds useful as inhibitors of ATR kinase” (Vertex Pharmaceuticals Incorporated, priority 2008, dated 2013)
